Source: ChEMBL document CHEMBL1201862, “PubChem BioAssay data set” (2004)
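Cultured in 96-well plates, cells were exposed to test compound for 48 hours across five concentrations. GI50 = concentration required for 50% inhibition of growth.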 Activity calls are given as the source filed them. Rule as the data show it: active = GI50 up to about 1.1 µM and inactive = higher.

Key:
Experiment in all cases: growth of human tumour cells (NCI), 48 h
SK-MEL-28 = test system: SK-MEL-28
LOX IMVI = test system: LOX IMVI
NCI-H23 = test system: NCI-H23
OVCAR-8 = test system: OVCAR-8
COLO 205 = test system: COLO 205
PC-3 = test system: PC-3
T47D = test system: T47D
HCT-116 = test system: HCT-116
IGROV-1 = test system: IGROV-1
MDA-MB-231 = test system: MDA-MB-231
A549 = test system: A549
TK-10 = test system: TK-10
786-0 = test system: 786-0
SW-620 = test system: SW-620
SF-295 = test system: SF-295
SK-MEL-2 = test system: SK-MEL-2
SK-MEL-5 = test system: SK-MEL-5
NCI-H522 = test system: NCI-H522
MDA-N = test system: MDA-N
HL-60 = test system: HL-60

SMILES | GI50 (SK-MEL-28) | GI50 (LOX IMVI) | GI50 (NCI-H23) | GI50 (OVCAR-8) | GI50 (COLO 205) | GI50 (PC-3) | GI50 (T47D) | GI50 (HCT-116) | GI50 (IGROV-1) | GI50 (MDA-MB-231) | GI50 (A549) | GI50 (TK-10) | GI50 (786-0) | GI50 (SW-620) | GI50 (SF-295) | GI50 (SK-MEL-2) | GI50 (SK-MEL-5) | GI50 (NCI-H522) | GI50 (MDA-N) | GI50 (HL-60)
CCCCSCc1nc2nc(Cl)c(Cl)nc2[nH]1 | 23 µM (inactive) | 21.7 µM (inactive) | 16.8 µM (inactive) | 34.9 µM (inactive) | 21.3 µM (inactive) | 31.6 µM (inactive) | 15.7 µM (inactive) | 19.5 µM (inactive) | 33.1 µM (inactive) | 24.6 µM (inactive) | 28.8 µM (inactive) | 27.9 µM (inactive) | 25.6 µM (inactive) | 28.5 µM (inactive) | 14.5 µM (inactive) | 18.7 µM (inactive) | 11.8 µM (inactive) | 17.8 µM (inactive) | 25.1 µM (inactive) | 
COc1cc2cc(C(=O)N3CC(CCl)c4c3cc(NC(=O)OCc3ccc([N+](=O)[O-])cc3)c3ccccc43)[nH]c2c(OC)c1OC (stereo not given) | > 100 µM (inactive) | 38.7 µM (inactive) | 0.158 µM (active) | 1.1 µM (active) | > 100 µM (inactive) | > 60 µM (inactive) | 24.3 µM (inactive) | 14.7 µM (inactive) | > 43.9 µM (inactive) | 44.9 µM (inactive) | 8.65 µM (inactive) | 0.327 µM (active) | 0.785 µM (active) | 28.2 µM (inactive) | 17.2 µM (inactive) | > 69.2 µM (inactive) | 46.7 µM (inactive) |  | > 100 µM (inactive) | 0.11 µM (active)
Nc1cccc(C#Cc2cccc(C#Cc3cccc(N)n3)n2)n1 |  | > 100 µM (inactive) | > 100 µM (inactive) | > 100 µM (inactive) | > 100 µM (inactive) | > 100 µM (inactive) | 76.9 µM (inactive) | > 100 µM (inactive) | 69.5 µM (inactive) | > 100 µM (inactive) |  | > 100 µM (inactive) | 55.6 µM (inactive) | > 100 µM (inactive) | 66.7 µM (inactive) | > 100 µM (inactive) | 47.4 µM (inactive) | > 100 µM (inactive) | 79.3 µM (inactive) | 
CSc1nn(C)cc2ncnc1-2 | > 100 µM (inactive) |  | > 100 µM (inactive) | > 100 µM (inactive) | > 100 µM (inactive) | > 100 µM (inactive) | > 100 µM (inactive) | > 100 µM (inactive) | > 100 µM (inactive) | > 100 µM (inactive) | > 100 µM (inactive) | > 100 µM (inactive) | > 100 µM (inactive) | > 100 µM (inactive) | > 100 µM (inactive) | > 100 µM (inactive) | > 100 µM (inactive) |  | > 100 µM (inactive) | > 100 µM (inactive)
Nc1ccc(-c2ncc3cc(-c4cccc(-c5cc6cnc(-c7ccc(N)cc7)nc6c6ccccc56)c4)c4ccccc4c3n2)cc1 | > 100 µM (inactive) | > 100 µM (inactive) | > 100 µM (inactive) | > 100 µM (inactive) | 35.3 µM (inactive) | > 100 µM (inactive) | > 100 µM (inactive) | > 100 µM (inactive) | > 100 µM (inactive) | > 100 µM (inactive) | > 100 µM (inactive) | > 100 µM (inactive) | > 100 µM (inactive) | > 100 µM (inactive) | > 100 µM (inactive) | > 100 µM (inactive) | 34.5 µM (inactive) | > 100 µM (inactive) | > 100 µM (inactive) | 
Brc1ccc2c(-c3csc(-c4c[nH]c5cc(Br)ccc45)n3)c[nH]c2c1 | 46.6 µM (inactive) | 20.9 µM (inactive) | 18.5 µM (inactive) | 21 µM (inactive) | 26.8 µM (inactive) | 23.7 µM (inactive) | 20.2 µM (inactive) | 14.5 µM (inactive) | 17 µM (inactive) | 21 µM (inactive) | 19.5 µM (inactive) | 30.8 µM (inactive) | 22 µM (inactive) | 16 µM (inactive) | 9.31 µM (inactive) | > 83 µM (inactive) | 42.2 µM (inactive) |  | 5.43 µM (inactive) | 5.69 µM (inactive)
COc1cc(C=O)ccc1Oc1nnnn1-c1ccccc1 | 72.4 µM (inactive) | 39.9 µM (inactive) | 46 µM (inactive) | 66.2 µM (inactive) | > 100 µM (inactive) | 82.4 µM (inactive) | 16.5 µM (inactive) | 29.8 µM (inactive) | 84.1 µM (inactive) | > 100 µM (inactive) | > 100 µM (inactive) | > 100 µM (inactive) | > 100 µM (inactive) | 27.5 µM (inactive) | > 100 µM (inactive) | > 100 µM (inactive) | 20.1 µM (inactive) | > 100 µM (inactive) | 37.8 µM (inactive) | 
